Read-outs that look alike come from different tables or passages of the source.

Usually Km stands for the substrate concentration at which the rate is half of its maximum.

In experiment [1] the test system is JaPTAL. The experiment can be described thus: PAL activity kinetics, Michaelis-Menten. The class given is biochemical, Joinvillea ascendens. The following applies: only the range for graminid PTALs is in the text.
In experiment [2] the test system is JaPTAL. The following applies: read-out: apparent Km; also printed as 11.0 μM.

Take `N[C@@H](Cc1ccccc1)C(=O)O` [Phe]: the Km in the experiment with JaPTAL [1] turned out to be 65.6 ± 1.4 µM.

Take `N[C@@H](Cc1ccc(O)cc1)C(=O)O` [Tyr]: the Km in the experiment on JaPTAL [2] amounted to 10.9 µM.

Source of the values: article doi:10.1101/2024.11.06.622220v2 (biorxiv, 2024).
